Results from patent US5491135A (priority 1993, dated 1996).
In brackets after ≈: the same amount, converted by molar mass. Several values for one entry are separate records, joined by “and”; a condition that tells them apart may be missing. Equal entries are not always repeated. Entries after “also recorded” stand apart in the source; their conditions may differ. Where two headings read alike, the source gives them in different places.

What was measured:
[1] = tested on: Varicella; assay: In vitro antiviral assay; type: cell-based; details: Vero
[2] = tested on: Vaccinia virus; assay: microbe, parasite or virus in culture; type: cell-based, vaccinia virus (Lederle vaccine); details: Vero
[3] = tested on: Coxsackie B3; assay: In vitro antiviral assay; type: cell-based
[4] = tested on: simian varicella virus; assay: Simian varicella virus infection in African green monkeys; type: in vivo, African green monkey
Experimental: Fifteen African green monkeys were weighed and bled for clinical chemistry hematology baselines. […] Each of the 15 monkeys were infected with simian varicella virus by intratracheal inoculation of 3.7×10^4 plaque forming units (PFU) of simian varicella virus. […] Control monkeys, service as infection controls, received twice daily intravenous injections of phosphate buffered saline administered at 1.0 ml/kg of body weight. A second group of three monkeys received PALA at 50 mg/kg/day given by intravenous bolus injection into the saphenous vein. A third group was given a lower dose of PALA at 20 mg/kg/day administered in a similar manner. Acyclovir treatment was administered at a subeffective dose of 10 mg/kg/day also given as intravenous bolus injection into the saphenous vein. A fifth group of three monkeys received a combined treatment of PALA at 20 mg/kg/day and acyclovir at 10 mg/kg/day. The drugs were injected into opposite veins at each time of treatment.
Drug solutions were prepared daily prior to treatment. Treatment was begun 24 hours after virus inoculation. PALA was provided as a solution in vials containing 5 ml at 100 mg/ml. The contents of three vials were pooled and seven ml of the pooled drug diluted to 28 ml to give 25 mg/ml. Five ml of this solution was diluted to […] to give 10 mg/ml. Drug was administered twice daily resulting in total daily doses of 50 or 20 mg/kg/day.
Acyclovir received as a gift from Burroughs Wellcome was weighed out as a 200 mg quantity. This was diluted with 5 ml of PBS and pH adjusted to 11.0 with 1N NaOH to effect solution. This was subsequently diluted to 40 ml to give a solution of 5 mg/ml and sterilized by filtration. Again, 1 ml per kg of body weight was administered by intravenous injection twice daily resulting in a dose of 10 mg/kg/day.
The clinical course of simian varicella infection was followed by collection of 2 ml of blood in heparin on day 2, 5, 7, 9 and 11 post-inoculation. The lymphocytes in the 2 ml specimen were separated on ficol-hypaque gradients, washed twice in RPMI-1640 medium and suspended in 10 ml of this medium. The 10 ml volume was divided between two 25 cm^2 tissue culture flasks seeded 24 hours earlier with Vero cells. After 5-7 days incubation, the culture fluids were discarded from the flasks and the cell monolayer fixed with methanol and stained with methylene blue-basic fuchsin. When dried the number of plaques in each flask were counted and the mean number of plaques between the two paired flasks were determined and expressed as a quantitation of viremia per ml of blood.
Rash was evaluated daily using a subjective scoring of severity from ± to 4+. A ± score indicates less than 10 vesicles seen on the skin of the monkey while 4+ indicates numerous vesicles covering the majority of the body surface. General clinical condition was assessed daily and anorexia noted by counting the number of food biscuits consumed daily. Monkeys dying during the course of the experiment were necropsied and simian varicella was determined as the cause of death based on the typical pathology. Baseline hematology and clinical chemistry tests were performed at three days before virus inoculation and again on day 0, immediately before virus inoculation. Following inoculation of simian varicella virus blood was taken for hematology and clinical chemistry tests at 3, 7, 9 and 11 days.
At 14 and 21 days after virus inoculation, blood was taken and the serum separated for quantitation of antibody. Antibody titers were obtained in a serum neutralization test employing a plaque reduction assay. The antibody titer expressed is the dilution of serum resulting in an 80 percent reduction in the number of plaques from that number occurring in control cultures without added serum.

[5] = tested on: respiratory syncytial virus (RSV); assay: RSV infection in cotton rats, lung titre; type: in vivo, cotton rat; details: for RSV lung titre: individual animal
Source text: 1. 50 to 100 g cotton rats of either sex inoculated i.n. with RS A2 (pool 8-28-92) on day 0.
2. On day +1 animals were given placebo or PALA as follows:
3. All animals killed on day +4 and their lungs tested for RSV levels.

[6] = tested on: Punta toro virus; details: Vero
[7] = tested on: Yellow fever virus; details: Vero
[8] = tested on: Vero cells; details: uninfected
[9] = tested on: vaccinia virus; details: for Vaccinia Lesion Score: per monkey
[10] = tested on: herpesvirus; details: less effective by a factor; cited from earlier work
[11] = in vitro; details: human, cem cells
[12] = tested on: Sandfly fever virus; assay: microbe, parasite or virus in culture; details: sandfly fever Sicilian virus, Vero
[13] = Cytotoxicity in human foreskin fibroblasts; details: hff cells
[14] = day 8, PALA 125 mg/kg day 1 & 7
[15] = day 10, PALA 125 mg/kg day 1 & 7
[16] = day 10, PALA 50, rifampicin 10 mg/kg/d or both
[17] = day 13, PALA 125 mg/kg day 1 & 7
[18] = day 13, PALA 50, rifampicin 10 mg/kg/d or both

O=C(O)C[C@H](NC(=O)CP(=O)(O)O)C(=O)O [PALA]
IC50 [1]: 10 µg/mL (≈ 39.2 µM) | TI [1]: 32.0 | IC50 ([2]; Orthopoxvirus vaccinia): 10 µg/mL (≈ 39.2 µM) | TI [2]: 32.0 | IC50 ([3]; Enterovirus B, B3, Vero): ~33 µg/mL (≈ 129 µM) | TI ([3]; Vero): 9.7 | death ([4]; PALA 20 mg/kg/day i.v.): died later that same day | death ([4]; PALA 50 mg/kg/day i.v.): died on day 10 | thrombocytopenia on day 11 ([4]; PALA 50 or Acyclovir 10 mg/kg/day): one monkey | Viremia, Mean PFU ([4]; day 5, PALA 50 mg/kg/d i.v.): 136 PFU and 154 PFU and 148 PFU | Severity of Rash ([4]; day 13, PALA 50 mg/kg/d i.v.): 4+ | Severity of Rash ([4]; day 14, PALA 50 mg/kg/d i.v.): 4+ | immunosuppression ([4]; high concentrations): Some concentration dependent immunosuppression was noted at high concentrations | RSV lung titre, mean (SD) ([5]; PALA 3 mg/kg/day): 3.3 (0.3) LOG10 /G Lung | RSV lung titre ([5]; PALA 3 mg/kg): 3.9 LOG10 and 3.5 LOG10 and 2.9 LOG10 and 3.0 LOG10 | RSV lung titre, mean (SD) ([5]; PALA 10 mg/kg/day): 2.8 (0.5) LOG10 /G Lung | decrease of viral titre over control ([5]; PALA 10 mg/kg/day): 1 log10 | RSV lung titre ([5]; PALA 10 mg/kg): 2.4 LOG10 and 2.9 LOG10 and 2.5 LOG10 and 3.5 LOG10 | efficacy against RSV ([5]; i.p.): more effective than ribavirin or combinational therapy; also recorded: statistically significant efficacy; also recorded: statistically better than ribavirin; also recorded: more effective as a single agent therapy in vivo against respiratory syncytial virus than ribavirin | IC50 [6]: 18.4 µg/mL (≈ 72.1 µM) | TI (TC50/IC50) ([6]; 50% inhibition): > 21.05 and > 17.35 | TI(95) ([6]; 95% inhibition): > 10.00 | IC50 [7]: 13.4 µg/mL (≈ 52.5 µM) | TI (TC50/IC50) ([7]; 50% inhibition): > 19.22 and > 23.82 | TI(95) ([7]; 95% inhibition): > 10.68 and > 10.38 | TC50 [8]: > 320 µg/mL | gross pathology ([9]; PALA 125 mg/kg i.v. bolus): dark red discoloration of the liver | lesion development ([9]; PALA 125 mg/kg, days 1 and 7): greater than what was seen in monkeys treated daily with PALA at a lower dose | virus titers in skin ([9]; PALA 125 mg/kg, days 1 and 7): Higher titers | lesion development ([9]; PALA 50, rifampicin 10 or both, mg/kg/day i.v.): effective in reducing lesion development and size | Weight ([9]; day 0, PALA 125 mg/kg day 1 & 7): 3.2 kg and 3.4 kg and 4.4 kg | Weight ([9]; day 0, PALA 50, rifampicin 10 mg/kg/d or both): 2.4 kg and 3.4 kg and 2.6 kg | Vaccinia Lesion Score, group mean ([9]; day 3, PALA 125 mg/kg day 1 & 7): 0.5 | Vaccinia Lesion Score, group mean ([9]; day 3, PALA 50, rifampicin 10 mg/kg/d or both): 0.1 | Vaccinia Lesion Score, group mean ([9]; day 6, PALA 125 mg/kg day 1 & 7): 0.7 | Vaccinia Lesion Score, group mean ([9]; day 6, PALA 50, rifampicin 10 mg/kg/d or both): 0.6 | Vaccinia Lesion Score, group mean ([9]; day 7, PALA 125 mg/kg day 1 & 7): 0.9 | Vaccinia Lesion Score, group mean ([9]; day 7, PALA 50, rifampicin 10 mg/kg/d or both): 0.5 | Vaccinia Lesion Score, group mean [9, 14]: 1.3 | Vaccinia Lesion Score [9, 14]: 0.7 and 1.8 | Vaccinia Lesion Score, group mean ([9]; day 8, PALA 50, rifampicin 10 mg/kg/d or both): 0.5 | Vaccinia Lesion Score, group mean ([9]; day 9, PALA 125 mg/kg day 1 & 7): 1.2 | Vaccinia Lesion Score, group mean ([9]; day 9, PALA 50, rifampicin 10 mg/kg/d or both): 0.3 | Vaccinia Lesion Score, group mean [9, 15]: 0 | Vaccinia Lesion Score [9, 15]: 0 | Vaccinia Lesion Score, group mean [9, 16]: 0 | Weight [9, 16]: 2.2 kg and 3.2 kg and 2.4 kg | Vaccinia Lesion Score [9, 16]: 0 | Vaccinia Lesion Score, group mean [9, 17]: 0.5 | Vaccinia Lesion Score [9, 17]: 0.3 and 0.7 | Vaccinia Lesion Score, group mean [9, 18]: 0 | Vaccinia Lesion Score [9, 18]: 0 | Weight ([9]; day 14, PALA 125 mg/kg day 1 & 7): 3.2 kg and 4.4 kg | Weight ([9]; day 14, PALA 50, rifampicin 10 mg/kg/d or both): 2.0 kg and 3.2 kg and 2.4 kg | Weight ([9]; day 21, PALA 125 mg/kg day 1 & 7): 3.4 kg and 4.2 kg | Weight ([9]; day 21, PALA 50, rifampicin 10 mg/kg/d or both): 2.0 kg and 3.4 kg and 2.6 kg | signs of toxicity ([9]; except one monkey at PALA 125 mg/kg bolus): No appreciable signs of toxicity | Titer of vaccinia virus in skin biopsy ([9]; head prints day 6, PALA 125 mg/kg day 1 & 7): 1.3 × 10^5 PFU/ml and 1.8 × 10^10 PFU/ml | antiherpes effectiveness relative to parent PAA [10]: over 200 | CC50 [11]: 60 µg/mL (≈ 235 µM) | IC50 [12]: 20.9 µg/mL (≈ 81.9 µM) | CC50 [13]: > 320 µg/mL
